Assays:
B2 bradykinin receptor = target: T1, B2 bradykinin receptor (Homo sapiens, UniProt P30411)
T1 sequence (P30411 whole entry): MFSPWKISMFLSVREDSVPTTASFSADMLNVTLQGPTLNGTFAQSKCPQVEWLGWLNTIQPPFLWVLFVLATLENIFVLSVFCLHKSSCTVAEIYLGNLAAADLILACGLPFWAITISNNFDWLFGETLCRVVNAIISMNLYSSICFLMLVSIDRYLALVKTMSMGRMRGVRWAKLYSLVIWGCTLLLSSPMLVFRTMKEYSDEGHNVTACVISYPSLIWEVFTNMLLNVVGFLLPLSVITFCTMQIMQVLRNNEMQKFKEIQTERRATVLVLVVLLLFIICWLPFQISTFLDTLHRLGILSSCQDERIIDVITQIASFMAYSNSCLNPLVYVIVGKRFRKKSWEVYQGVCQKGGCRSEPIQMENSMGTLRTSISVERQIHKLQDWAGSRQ

[1] = target: T2, Amine oxidase [flavin-containing] A (Homo sapiens, UniProt P21397); assay type: functional
T2 sequence (P21397 whole entry): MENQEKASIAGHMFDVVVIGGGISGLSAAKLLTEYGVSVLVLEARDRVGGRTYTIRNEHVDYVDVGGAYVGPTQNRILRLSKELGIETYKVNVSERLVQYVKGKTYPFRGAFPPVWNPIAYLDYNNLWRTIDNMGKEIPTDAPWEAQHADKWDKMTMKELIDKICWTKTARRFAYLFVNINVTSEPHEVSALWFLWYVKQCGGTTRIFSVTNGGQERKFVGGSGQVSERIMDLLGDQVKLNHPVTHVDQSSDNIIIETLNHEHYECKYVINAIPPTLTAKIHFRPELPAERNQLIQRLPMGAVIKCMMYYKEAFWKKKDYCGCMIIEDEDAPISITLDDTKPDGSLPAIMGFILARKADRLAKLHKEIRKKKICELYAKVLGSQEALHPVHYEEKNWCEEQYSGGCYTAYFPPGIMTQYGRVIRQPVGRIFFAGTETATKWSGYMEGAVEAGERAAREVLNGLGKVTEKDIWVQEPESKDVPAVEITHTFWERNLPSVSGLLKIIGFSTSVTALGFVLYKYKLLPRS

[2] = target: Beta-2 adrenergic receptor (Homo sapiens, UniProt P07550); assay type: functional, cell-based
Chain of Beta-2 adrenergic receptor (P07550 whole entry): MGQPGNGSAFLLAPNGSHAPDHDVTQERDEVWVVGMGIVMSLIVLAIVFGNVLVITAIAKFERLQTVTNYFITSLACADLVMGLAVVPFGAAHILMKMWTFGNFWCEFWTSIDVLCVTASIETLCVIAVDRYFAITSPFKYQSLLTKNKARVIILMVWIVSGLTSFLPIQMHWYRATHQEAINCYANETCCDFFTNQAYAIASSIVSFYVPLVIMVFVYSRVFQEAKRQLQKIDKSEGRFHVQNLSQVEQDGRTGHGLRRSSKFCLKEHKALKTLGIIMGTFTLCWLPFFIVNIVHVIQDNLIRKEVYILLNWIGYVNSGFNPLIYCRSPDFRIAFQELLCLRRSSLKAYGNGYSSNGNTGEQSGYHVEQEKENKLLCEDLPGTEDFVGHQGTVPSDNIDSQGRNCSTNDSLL

[3] = target: T3, Muscarinic acetylcholine receptor M2 (Homo sapiens, UniProt P08172)
T3 sequence (P08172 whole entry): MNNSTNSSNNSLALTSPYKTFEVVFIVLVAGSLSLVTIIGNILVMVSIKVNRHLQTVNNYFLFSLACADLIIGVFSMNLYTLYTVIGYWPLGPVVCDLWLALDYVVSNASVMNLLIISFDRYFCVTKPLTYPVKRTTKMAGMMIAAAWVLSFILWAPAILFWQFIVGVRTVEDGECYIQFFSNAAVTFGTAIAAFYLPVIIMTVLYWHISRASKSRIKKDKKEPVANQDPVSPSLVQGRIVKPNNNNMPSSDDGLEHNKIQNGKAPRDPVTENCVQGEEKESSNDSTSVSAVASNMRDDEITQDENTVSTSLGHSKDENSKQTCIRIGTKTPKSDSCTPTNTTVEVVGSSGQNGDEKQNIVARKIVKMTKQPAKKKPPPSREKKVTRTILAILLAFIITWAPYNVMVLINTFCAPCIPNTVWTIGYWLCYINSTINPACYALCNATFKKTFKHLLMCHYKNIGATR

[4] = target: T4, Muscarinic acetylcholine receptor M1 (Homo sapiens, UniProt P11229); assay type: functional, cell-based
T4 sequence (P11229 whole entry): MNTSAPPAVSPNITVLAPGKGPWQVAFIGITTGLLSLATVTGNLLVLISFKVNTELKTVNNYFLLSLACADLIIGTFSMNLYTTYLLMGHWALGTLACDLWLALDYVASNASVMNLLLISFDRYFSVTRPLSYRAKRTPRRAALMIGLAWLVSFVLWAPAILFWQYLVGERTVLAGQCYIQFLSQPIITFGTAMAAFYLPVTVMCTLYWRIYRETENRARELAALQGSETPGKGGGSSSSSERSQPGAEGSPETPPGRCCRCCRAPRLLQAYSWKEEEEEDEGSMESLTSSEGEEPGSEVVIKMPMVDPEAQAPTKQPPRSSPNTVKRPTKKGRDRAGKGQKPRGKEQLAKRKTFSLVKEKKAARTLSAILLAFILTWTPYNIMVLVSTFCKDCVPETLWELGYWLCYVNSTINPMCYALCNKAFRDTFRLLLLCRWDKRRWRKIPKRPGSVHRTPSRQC

[5] = target: T5, Alpha-2B adrenergic receptor (Homo sapiens, UniProt P18089)
T5 sequence (P18089 whole entry): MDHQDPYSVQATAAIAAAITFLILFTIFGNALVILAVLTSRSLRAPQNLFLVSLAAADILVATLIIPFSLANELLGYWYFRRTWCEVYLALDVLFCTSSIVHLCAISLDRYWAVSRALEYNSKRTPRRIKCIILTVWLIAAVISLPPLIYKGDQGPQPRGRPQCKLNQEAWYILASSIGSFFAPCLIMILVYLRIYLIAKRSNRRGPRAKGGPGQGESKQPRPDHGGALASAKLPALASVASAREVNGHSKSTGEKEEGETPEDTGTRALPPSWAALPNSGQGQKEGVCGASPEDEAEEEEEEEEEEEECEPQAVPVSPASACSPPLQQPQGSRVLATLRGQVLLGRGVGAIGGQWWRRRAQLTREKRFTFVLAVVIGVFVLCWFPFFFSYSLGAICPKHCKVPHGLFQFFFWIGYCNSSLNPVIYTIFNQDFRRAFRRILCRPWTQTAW
Also: assay procedure not described here.

SMILES	AC50 (B2 bradykinin receptor) [µM]	AC50 [1] [µM]	AC50 [2] [µM]	AC50 [3] [µM]	AC50 [4] [µM]	AC50 [5] [µM]
CO[C@H]1C[C@@H]2CC[C@@H](C)[C@@](O)(O2)C(=O)C(=O)N2CCCC[C@H]2C(=O)O[C@H]([C@H](C)C[C@@H]2CC[C@@H](O)[C@H](OC)C2)CC(=O)[C@H](C)/C=C(\C)[C@@H](O)[C@@H](OC)C(=O)[C@H](C)C[C@H](C)/C=C/C=C/C=C/1C [SIROLIMUS]	> 30	> 30	> 30	> 30	–	–
C1CCC(C(CC2CCCCN2)C2CCCCC2)CC1 (stereo not drawn) [PERHEXILINE]	–	–	> 30	–	–	–
CC[N+]1(C)[C@@H]2CC(OC(=O)[C@H](CO)c3ccccc3)C[C@H]1[C@@H]1O[C@@H]12 (stereo partly drawn) [OXITROPIUM]	–	> 30	–	0.003	> 30	–
Cc1ccc(-c2cc(C(F)(F)F)nn2-c2ccc(S(N)(=O)=O)cc2)cc1 [CELECOXIB]	> 30	–	> 30	–	–	–
C=CCc1ccccc1OCC(O)CNC(C)C (stereo not drawn) [ALPRENOLOL]	14	> 0.3	–	> 0.3	> 0.3	> 30
CS(=O)(=O)c1ccc(C2=C(c3ccccc3)C(=O)OC2)cc1 [ROFECOXIB]	> 30	> 30	> 30	> 30	–	–
O=C(CCNNC(=O)c1ccncc1)NCc1ccccc1 [NIALAMIDE]	–	> 30	–	> 30	> 30	–
CCC(=O)NCC[C@@H]1CCc2ccc3c(c21)CCO3 [RAMELTEON]	–	> 30	–	> 30	> 30	–
OCCN1C[C@H](O)[C@@H](O)[C@H](O)[C@H]1CO [MIGLITOL]	–	> 30	–	> 30	> 30	–
C[C@]12CCC(=O)C=C1CC[C@@H]1[C@@H]2[C@@H](O)C[C@@]2(C)[C@H]1CC[C@]2(O)C(=O)CO [HYDROCORTISONE]	> 30	–	> 30	–	–	–
CC[C@H]1[C@@H](O)[C@@H]2[C@H](CC[C@]3(C)[C@@H]([C@H](C)CCC(=O)O)CC[C@@H]23)[C@@]2(C)CC[C@@H](O)C[C@@H]12 [OBETICHOLIC ACID]	> 30	> 30	–	> 30	> 30	> 30
Oc1c(Cl)cc(Cl)c2cccnc12 [CHLOROXINE]	–	> 30	–	> 30	> 30	–
CN(C)[C@@H](c1cccc(O)c1)[C@H]1CCCC[C@H]1O [CIRAMADOL]	–	> 30	–	> 30	> 30	–
NCC(CC(=O)O)c1ccc(Cl)cc1 (stereo not drawn) [BACLOFEN]	> 30	> 30	> 30	> 30	–	–
c1ccc([C@H]2CN3CCSC3=N2)cc1 [LEVAMISOLE]	–	–	> 30	–	–	–
CC(=O)N[C@@H]1[C@@H](O)[C@H](O)[C@@H](CO)O[C@H]1O [N-ACETYLGLUCOSAMINE]	–	> 30	–	> 30	> 30	–
CN(C)S(=O)(=O)c1ccc2c(c1)N(CCCN1CCC(CCO)CC1)c1ccccc1S2 [PIPOTIAZINE]	–	> 30	–	1.72	> 30	–
CC1(C)NC(=O)N(c2ccc([N+](=O)[O-])c(C(F)(F)F)c2)C1=O [NILUTAMIDE]	> 30	> 30	–	> 30	> 30	> 30
CCOC(=O)[C@H](CCc1ccccc1)N[C@@H](C)C(=O)N1[C@H](C(=O)O)C[C@@H]2CCC[C@@H]21	> 30	–	> 30	–	–	–

SMILES	AC50 (B2 bradykinin receptor) [µM]	AC50 [1] [µM]	AC50 [2] [µM]	AC50 [3] [µM]	AC50 [4] [µM]	AC50 [5] [µM]
Cc1nc([N+](=O)[O-])cn1-c1ccc([N+](=O)[O-])cc1 [NITREFAZOLE]	> 30	–	> 30	–	–	–
N[C@H](C(=O)O)[C@H](O)c1ccc(O)c(O)c1 [DROXIDOPA]	–	> 30	–	> 30	> 30	–
O=C(O)c1cc(O)ccc1O [GENTISIC ACID]	–	> 30	–	> 30	> 30	–
CC(C)Nc1ncccn1 [ISAXONINE]	–	> 30	–	> 30	> 30	–
CC(=O)Nc1ccc(O)cc1 [ACETAMINOPHEN]	–	> 10	> 30	> 30	–	–
C[C@@H](O)[C@H]1C(=O)N2C(C(=O)O)=C(S[C@@H]3CN[C@H](C(=O)N(C)C)C3)[C@H](C)[C@H]12 [MEROPENEM]	> 10	–	> 300	–	–	–
CN(C)CCN1C(=O)c2ccccc2N(C)c2ccccc21 [DIBENZEPIN]	–	> 30	–	2.62	> 30	–
CCOC(=O)[C@H](CCc1ccccc1)N[C@@H](C)C(=O)N1[C@H](C(=O)O)C[C@H]2CCCC[C@@H]21 [TRANDOLAPRIL]	–	> 30	–	> 30	> 30	–
C=C[C@H]1C[N@@]2CC[C@H]1C[C@H]2[C@H](O)c1ccnc2ccc(OC)cc12 [QUININE]	–	> 30	–	> 30	> 30	–
CN(C)CCC(c1ccc(Cl)cc1)c1ccccn1 (stereo not drawn) [CHLORPHENIRAMINE]	> 30	–	> 30	–	–	–
N[C@@H]1[C@H]2CN(c3nc4c(cc3F)c(=O)c(C(=O)O)cn4-c3ccc(F)cc3F)C[C@@H]12 [TROVAFLOXACIN]	–	–	> 30	–	–	–
N[C@@H](C(=O)N[C@@H]1C(=O)N2C(C(=O)O)=C(Cl)CC[C@H]12)c1ccccc1 [LORACARBEF ANHYDROUS]	–	> 30	–	> 30	> 30	–
Cc1cc(C#N)cc(C)c1Oc1nc(Nc2ccc(C#N)cc2)nc(N)c1Br [ETRAVIRINE]	–	> 30	–	22.6	> 10	–
c1cnc(N2CCN(Cc3ccc4c(c3)OCO4)CC2)nc1 [PIRIBEDIL]	–	–	> 30	–	–	–
COC(c1ccccc1)(c1ccccc1)[C@H](Oc1nc(C)cc(C)n1)C(=O)O [AMBRISENTAN]	–	> 30	–	> 30	> 30	–
CCCN1C[C@H](CSC)C[C@@H]2c3cccc4[nH]cc(c34)C[C@H]21 [PERGOLIDE]	> 30	–	> 30	–	–	–
CN(C)CC(c1ccc(O)cc1)C1(O)CCCCC1 (stereo not drawn) [DESVENLAFAXINE]	–	> 30	–	> 30	> 30	–
CN(C)CCn1nnnc1SCC1=C(C(=O)O)N2C(=O)[C@@H](NC(=O)Cc3csc(N)n3)[C@H]2SC1 [CEFOTIAM]	–	> 30	–	> 30	> 30	–
CC(C)(C)NC[C@H](O)COc1ccccc1C1CCCC1 [PENBUTOLOL]	–	> 30	–	> 30	> 30	–

— ChEMBL document CHEMBL5291721, “A preclinical secondary pharmacology resource illuminates target-adverse drug reaction associations of marketed drugs” (Nat Commun, 2023)
